Numbers after ± are expanded uncertainties.
Columns and labels:
[1] = relative permittivity at various frequencies (dimensionless); xn = mol fraction of the nth substance listed; conditions: 303.15 K, 101.3 kPa, Liquid, Frequency=1 MHz, capacitance measurements at 1 MHz
[2] = relative permittivity at various frequencies (dimensionless); conditions: 303.15 K; 101.3 kPa; Liquid; Frequency=1 MHz; capacitance measurements at 1 MHz

CN(C)C=O [dimethylformamide] + OCCO
Conditions | relative permittivity
[1], x2 = 0 | 36.55 ± 0.22

NC=O [formamide] + CCO
[1]
Conditions | relative permittivity
x2 = 0 | 106.14 ± 0.64
x2 = 0.046 | 100.82 ± 0.65
x2 = 0.095 | 95.19 ± 0.62
x2 = 0.146 | 89.27 ± 0.59
x2 = 0.199 | 82.58 ± 0.55
x2 = 0.254 | 76.43 ± 0.51
x2 = 0.312 | 70.03 ± 0.47
x2 = 0.374 | 64.23 ± 0.43
x2 = 0.438 | 57.92 ± 0.39
x2 = 0.506 | 51.93 ± 0.35
x2 = 0.577 | 46.28 ± 0.31
x2 = 0.652 | 41.17 ± 0.28
x2 = 0.732 | 36.15 ± 0.25
x2 = 0.816 | 31.37 ± 0.21
x2 = 0.905 | 27.6 ± 0.18

CNC=O [N-methylformamide] + CCO
[1]
Conditions | relative permittivity
x2 = 0 | 169.76 ± 1
x2 = 0.101 | 144.63 ± 0.98
x2 = 0.202 | 123.72 ± 0.84
x2 = 0.302 | 104.17 ± 0.73
x2 = 0.402 | 85.99 ± 0.61
x2 = 0.502 | 71.06 ± 0.51
x2 = 0.602 | 57.8 ± 0.42
x2 = 0.702 | 46.91 ± 0.35
x2 = 0.802 | 37.6 ± 0.29
x2 = 0.901 | 29.54 ± 0.23

CNC=O [N-methylformamide] + OCCO
[1]
Conditions | relative permittivity
x2 = 0 | 169.76 ± 1
x2 = 0.105 | 139.93 ± 0.97
x2 = 0.209 | 118.26 ± 0.8
x2 = 0.312 | 102.12 ± 0.68
x2 = 0.413 | 87.49 ± 0.58
x2 = 0.514 | 76.46 ± 0.5
x2 = 0.613 | 67.14 ± 0.44
x2 = 0.711 | 59.59 ± 0.39
x2 = 0.809 | 52.6 ± 0.34
x2 = 0.905 | 46.26 ± 0.31

NC=O [formamide] + OCCO
[1]
Conditions | relative permittivity
x2 = 0 | 106.14 ± 0.64
x2 = 0.048 | 103.75 ± 0.63
x2 = 0.099 | 100.44 ± 0.62
x2 = 0.151 | 96.49 ± 0.6
x2 = 0.206 | 92.28 ± 0.57
x2 = 0.263 | 88.7 ± 0.55
x2 = 0.322 | 84.61 ± 0.53
x2 = 0.384 | 80.3 ± 0.5
x2 = 0.449 | 75.79 ± 0.48
x2 = 0.517 | 70.99 ± 0.45
x2 = 0.588 | 66.04 ± 0.42
x2 = 0.662 | 61.55 ± 0.39
x2 = 0.74 | 56.35 ± 0.36
x2 = 0.823 | 51.05 ± 0.33
x2 = 0.909 | 46.12 ± 0.3

CN(C)C=O [dimethylformamide] + CCO
[1]
Conditions | relative permittivity
x2 = 0 | 36.55 ± 0.22
x2 = 0.087 | 35.57 ± 0.21
x2 = 0.169 | 34.72 ± 0.21
x2 = 0.249 | 33.96 ± 0.21
x2 = 0.325 | 32.98 ± 0.2
x2 = 0.399 | 32.16 ± 0.19
x2 = 0.469 | 31.39 ± 0.19
x2 = 0.537 | 30.57 ± 0.19
x2 = 0.603 | 29.63 ± 0.18
x2 = 0.666 | 28.78 ± 0.18
x2 = 0.726 | 27.8 ± 0.17
x2 = 0.785 | 27.05 ± 0.16
x2 = 0.841 | 26.22 ± 0.16
x2 = 0.896 | 25.39 ± 0.16
x2 = 0.949 | 24.65 ± 0.15

CNC=O [N-methylformamide]
Conditions | relative permittivity
[2] | 169.76 ± 1

NC=O [formamide]
Conditions | relative permittivity
[2] | 106.14 ± 0.64

CN(C)C=O [dimethylformamide]
Conditions | relative permittivity
[2] | 36.55 ± 0.22
